Experimental data from the supplement of paper PMC13380429.

How the values were obtained:
Conditions in all cases: 72 h
HepG2 [1] = experiment: cell viability relative to DMSO; higher = less toxic
Vero E6 [2] = experiment: as above
Caco-2 [3] = experiment: as above
Calu-3 [4] = experiment: as above
U2OS [5] = experiment: as above
HepG2 [6] = experiment: relative viability EC50 (midpoint between 100% and the lowest measured viability); higher = less toxic
Vero E6 [7] = experiment: as above
Caco-2 [8] = experiment: as above
Calu-3 [9] = experiment: as above
U2OS [10] = experiment: as above
HepG2 [11] = experiment: drug sensitivity score (DSS) for viability; higher = more toxic; extreme values may be limits of the assay
Vero E6 [12] = experiment: as above
Caco-2 [13] = experiment: as above
Calu-3 [14] = experiment: as above
U2OS [15] = experiment: as above

SMILES | cell viability (HepG2 [1]; 1 nM) | cell viability (HepG2 [1]; 10 nM) | cell viability (HepG2 [1]; 100 nM) | cell viability (HepG2 [1]; 1000 nM) | cell viability (HepG2 [1]; 10000 nM) | cell viability (Vero E6 [2]; 1 nM) | cell viability (Vero E6 [2]; 10 nM) | cell viability (Vero E6 [2]; 100 nM) | cell viability (Vero E6 [2]; 1000 nM) | cell viability (Vero E6 [2]; 10000 nM) | cell viability (Caco-2 [3]; 1 nM) | cell viability (Caco-2 [3]; 10 nM) | cell viability (Caco-2 [3]; 100 nM) | cell viability (Caco-2 [3]; 1000 nM) | cell viability (Caco-2 [3]; 10000 nM) | cell viability (Calu-3 [4]; 1 nM) | cell viability (Calu-3 [4]; 10 nM) | cell viability (Calu-3 [4]; 100 nM) | cell viability (Calu-3 [4]; 1000 nM) | cell viability (Calu-3 [4]; 10000 nM) | cell viability (U2OS [5]; 1 nM) | cell viability (U2OS [5]; 10 nM) | cell viability (U2OS [5]; 100 nM) | cell viability (U2OS [5]; 1000 nM) | cell viability (U2OS [5]; 10000 nM) | relative viability EC50 (HepG2 [6]) | relative viability EC50 (Vero E6 [7]) | relative viability EC50 (Caco-2 [8]) | relative viability EC50 (Calu-3 [9]) | relative viability EC50 (U2OS [10]) | drug sensitivity score (HepG2 [11]) | drug sensitivity score (Vero E6 [12]) | drug sensitivity score (Caco-2 [13]) | drug sensitivity score (Calu-3 [14]) | drug sensitivity score (U2OS [15])
O=C(O)c1ccc2[nH]cc(CCCCN3CC=C(c4ccccc4)CC3)c2c1 [carmoxirole] | 98.4% | 93% | 86.7% | 100% | 88.3% | 99.2% | 100% | 93.6% | 102% | 95.8% | 106% | 107% | 103% | 91.2% | 105% | 98.7% | 112% | 92.4% | 96% | 90.8% | 103% | 99% | 96.9% | 100% | 101% | > 10 µM | > 10 µM | > 10 µM | > 10 µM | > 10 µM | 0 | 0 | 0 | 0 | 0
CO/N=C(\C(=O)N[C@@H]1C(=O)N2C(C(=O)O)=C(CSc3nc(C)c(CC(=O)O)s3)CS[C@H]12)c1csc(N)n1 [cefodizime] | 88.6% | 105% | 98.8% | 97.3% | 103% | 93.3% | 95.8% | 89.4% | 99.6% | 106% | 89.2% | 89.8% | 105% | 100% | 89.3% | 98.9% | 93.5% | 89.3% | 86.3% | 96.8% | 96.1% | 95.5% | 99.4% | 97.7% | 98.9% | > 10 µM | > 10 µM | > 10 µM | > 10 µM | > 10 µM | 0 | 0 | 0 | 0 | 0
CCS(=O)(=O)N(C)[C@H]1c2cc(C#N)ccc2OC(C)(C)[C@@H]1O [chromanol-293B-(-)-[3R,4S]] | 104% | 102% | 91.6% | 103% | 98.7% | 96.6% | 107% | 98.2% | 92.5% | 110% | 94.3% | 93.2% | 90.4% | 93.3% | 88.9% | 105% | 99.2% | 95.5% | 106% | 90.6% | 93% | 93.8% | 99.1% | 94.3% | 95.2% | > 10 µM | > 10 µM | > 10 µM | > 10 µM | > 10 µM | 0 | 0 | 0 | 0 | 0
CC1(COc2ccc(CC3SC(=O)NC3=O)cc2)CCCCC1 (stereo not given) [ciglitazone] | 101% | 99.8% | 98.2% | 108% | 105% | 94.6% | 97% | 92.7% | 94.1% | 96.5% | 98.7% | 99.2% | 99.1% | 92.9% | 95.2% | 104% | 98.4% | 92.9% | 98% | 102% | 95.3% | 99.8% | 102% | 100% | 100% | > 10 µM | > 10 µM | > 10 µM | > 10 µM | > 10 µM | 0 | 0 | 0 | 0 | 0
O=C(/C=C/c1cccc(F)c1)NC1CC1 [cinflumide] | 92.8% | 101% | 101% | 97.7% | 84.8% | 101% | 98.7% | 106% | 102% | 91.8% | 104% | 99.9% | 95.5% | 99.3% | 98.1% | 96.8% | 91.7% | 102% | 99.9% | 96.4% | 98.9% | 101% | 91.5% | 98% | 99.8% | > 10 µM | > 10 µM | > 10 µM | > 10 µM | > 10 µM | 0.5 | 0 | 0 | 0 | 0
CCNC(=O)/C=C/c1cccc(Br)c1 [cinromide] | 105% | 96.5% | 106% | 97.5% | 96.8% | 110% | 83.6% | 97.1% | 101% | 95.6% | 99.1% | 96.4% | 105% | 87.2% | 92.4% | 102% | 101% | 106% | 91.5% | 107% | 101% | 96.7% | 99% | 96.3% | 98.5% | > 10 µM | > 10 µM | > 10 µM | > 10 µM | > 10 µM | 0 | 0 | 0.7 | 0 | 0
